The values below are quoted from earlier work in patent publication US20110105387A1 (priority 2009, published 2011).

Converted amounts (≈) assume the structure as drawn.

For series [1] the following is noted: literature.
The conditions of series [2]: literature. The source holds these as a separate data set.

For `CO[C@H]1C[C@@H]2CC[C@@H](C)[C@@](O)(O2)C(=O)C(=O)N2CCCC[C@H]2C(=O)O[C@H]([C@H](C)C[C@@H]2CC[C@@H](OC(=O)C(C)(CO)CO)[C@H](OC)C2)CC(=O)[C@H](C)/C=C(\C)[C@@H](O)[C@@H](OC)C(=O)[C@H](C)C[C@H](C)/C=C/C=C/C=C/1C` [CCI-779], in series [1], the water solubility was about 120 µg/mL (≈ 116 µM).
As for `CO[C@H]1C[C@@H]2CC[C@@H](C)[C@@](O)(O2)C(=O)C(=O)N2CCCC[C@H]2C(=O)O[C@H]([C@H](C)C[C@@H]2CC[C@@H](O)[C@H](OC)C2)CC(=O)[C@H](C)/C=C(\C)[C@@H](O)[C@@H](OC)C(=O)[C@H](C)C[C@H](C)/C=C/C=C/C=C/1C` [rapamycin], the “time to attain peak concentrations” value in series [2] (after oral dosing) is at most 2 h. Besides, the “increase in AUC with a high-fat meal” value in series [2] (high-fat meal, slower rate of absorption) was 35%. The excreted in urine in series [2] is given as under 3%.
